Values quoted from earlier work as cited in patent US6555712B2, “Process for the preparation of diorganotrisulfide” (Indian Institute of Technology, priority 2001, dated 2003).
Read-outs that look alike come from different tables or passages of the source.

Experiments:
[1] = tested on: Trypanosoma brucei brucei, T.b. rhodesiense, T.b. gambiense, T. evansi, T. congolense and T. equiperdum; conditions: in vitro; one range for six Trypanosoma species
[2] = tested on: Entamoeba histolytica; conditions: in vitro
[3] = tested on: Giardia Lamblia; conditions: in vitro
[4] = tested on: MASEF, Mastomys natalensis embryo fibroblast; conditions: MASEF cell line, in vitro
[5] = tested on: HEFL-12, human embryo fibroblast; conditions: HEFL-12 cell line, in vitro
[6] = tested on: whole blood platelet-aggregation; conditions: DATS present in the steam-distilled component of garlic extract
[7] = tested on: canine mammary tumor cells (CMT-13)
[8] = tested on: human neoplastic (A549) lung cells; conditions: 10 micromolar
[9] = tested on: human nonneoplastic (MRC-5) lung cells; conditions: 10 microM
[10] = tested on: intracellular Ca2+ in A549 cells
[11] = tested on: cultured human neoplastic (A549) lung cells; conditions: 1 microM for 24 hours
[12] = tested on: T lymphocytes
[13] = tested on: macrophages; conditions: 1-100 micrograms/ml
[14] = tested on: tumor derived immunosuppressive factors produced by S180 cells and Ehrlich ascitic cancer cells
[15] = tested on: macrophages
[16] = tested on: Sitophilus zeamais (Motschulsky)
[17] = tested on: Tribolium castaneum (Herbst); parameters: egg hatching: dose or concentration left out as unconfirmed

In the case of `C=CCSSSCC=C` [DATS, Diallyltrisulfide], the “IC50 (concentration which inhibits metabolism or growth of parasites by 50%)” value [1] is listed as 0.8-5.5 micrograms/ml, the “IC50 (concentration which inhibits metabolism or growth of parasites by 50%)” value [2] is listed as 59 micrograms/ml and the “IC50 (concentration which inhibits metabolism or growth of parasites by 50%)” value [3] is listed as 14 micrograms/ml. For the same compound, the maximum tolerated concentration [4] was 25 micrograms/ml, the maximum tolerated concentration [5] was 25 micrograms/ml and the “Inhibition of whole blood platelet-aggregation” value [6] was “high”. The “growth of canine mammary tumor cells (CMT-13)” value [7] was “markedly inhibits”, the “reduction of A549 growth” value [8] was 47% and the MRC-5 cell growth [9] was “did not alter”. The “intracellular Ca2+ in A549 cells” value ([10]; 10 microM, during the first four hours after treatment) was “marked and progressive increase”, the “intracellular Ca2+ in A549 cells after refeeding the medium without DATS” value ([10]; after refeeding medium without DATS) was “returned to near control levels within one hour” and the “apoptosis, as indicated by increased DNA fragmentation” value [11] was “significantly induced apoptosis”. For the same compound, the “effect on activation of T lymphocytes by Con A” value ([12]; 3.125-12.5 micrograms/ml) was “augmented”, the “effect on T cell activation” value ([12]; high concentration (50 micrograms/ml)) was “inhibitory effect” and the “production of NO by macrophages” value [13] was “can inhibit”. For the same compound, the “inhibition by tumor derived immunosuppressive factors of the activation of T cells (inhibitory rate)” value [14] was “reduce the inhibitory rate significantly”, the “production of hydrogen peroxide (H2O2) by macrophages” value [15] was “enhance” and the feeding deterrence index ([16]; S. zeamais adults, 2.98 mg/g food) was 27%. For the same compound, the “contact and fumigant toxicities” value ([16]; S. zeamais adults, comparison with methylallyl disulfide) was “greater than that of methylallyl disulfide”, the nutritional indices ([16]; all of the insects tested (S. zeamais)) was “significantly reduced” and the egg hatching ([17]; T. castaneum) was “totally suppressed”. The feeding deterrence ([17]; T. castaneum adults, 0.75 mg/g food) was 85%, the “contact and fumigant toxicities” value ([17]; T. castaneum adults, comparison with methylallyl disulfide) was “greater than that of methylallyl disulfide” and the feeding deterrence index ([17]; T. castaneum larvae, 2.98 mg/g food) was 51%. The “larval and adult emergence” value ([17]; T. castaneum, at 0.08 mg/cm2) was “totally suppressed” and the nutritional indices ([17]; all of the insects tested (T. castaneum)) was “significantly reduced”.

For `C=CCSSC` [Methylallyl disulfide, methylallyl disulfide, reference compound], the “growth rate, food consumption, and food utilization of adults” value ([16]; S. zeamais adults) is given as “significantly decreased”, the feeding deterrence index ([16]; S. zeamais adults, 6.08 mg/g food) is given as 44% and the “growth rate, food consumption, and food utilization of adults” value ([17]; T. castaneum adults) is given as “significantly decreased”. For the same compound, the feeding deterrence index ([17]; T. castaneum adults, 1.52 mg/g food) was 44% and the “nutritional indices of T. castaneum larvae” value ([17]; T. castaneum larvae) was “did not affect”.
